# Measurements as given in PubChem BioAssay AID1963826 (Molecular Pharmacology Branch, DTP, NCI, 2024).
# pIC50: −log10 of the molar value.
# Test system: 926638-142-R-J1-PDC complex spheroid viability
# Assay: Anticancer human tumor 926638-142-R-J1-PDC patient-derived endometrial carcinoma cell line growth inhibition [POLQ]
# Conditions: for pIC50: curve of first compound; for viability, T/C: stronger effect = lower value
# Outline: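 PDC + HUVEC + MSC complex spheroids; POLQ inhibitors ± partner drugs; top conc. at/near clinical Cmax, else 10 microM (SN-38 1 microM), half-log dilutions; 37 degrees C, 5% CO2.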
# 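Also: spheroids exposed to drugs for one week before readout.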
# 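For viability, T/C in this document: percent viability relative to DMSO vehicle control wells set as 100%.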
structure (smiles),measurement,setting,value
CNCc1ccc(-c2[nH]c3cc(F)cc4c3c2CCNC4=O)cc1 + Nc1ccc(C#CCN(C(=O)Cc2ncc(C(F)(F)F)cc2C(F)(F)F)c2ccc(F)cc2)nn1,pIC50,second compound 0.0316 µM,< 5.00
same,pIC50,second compound 0.1 µM,< 5.00
same,pIC50,second compound 0.316 µM,< 5.00
same,pIC50,second compound 1 µM,< 5.00
same,pIC50,second compound 3.16 µM,< 5.00
same,pIC50,second compound 10 µM,< 5.00
same,"viability, T/C","second compound 0.0316 µM, first compound 0.0316 µM",94.5%
same,"viability, T/C","second compound 0.0316 µM, first compound 0.1 µM",87.2%
same,"viability, T/C","second compound 0.0316 µM, first compound 0.316 µM",91.2%
same,"viability, T/C","second compound 0.0316 µM, first compound 1 µM",83.1%
same,"viability, T/C","second compound 0.0316 µM, first compound 3.16 µM",86.2%
same,"viability, T/C","second compound 0.0316 µM, first compound 10 µM",71.3%
same,"viability, T/C","second compound 0.1 µM, first compound 0.0316 µM",96.7%
same,"viability, T/C","second compound 0.1 µM, first compound 0.1 µM",115%
same,"viability, T/C","second compound 0.1 µM, first compound 0.316 µM",90.7%
same,"viability, T/C","second compound 0.1 µM, first compound 1 µM",87.8%
same,"viability, T/C","second compound 0.1 µM, first compound 3.16 µM",101%
same,"viability, T/C","second compound 0.1 µM, first compound 10 µM",71.3%
same,"viability, T/C","second compound 0.316 µM, first compound 0.0316 µM",101%
same,"viability, T/C","second compound 0.316 µM, first compound 0.1 µM",108%
same,"viability, T/C","second compound 0.316 µM, first compound 0.316 µM",95%
same,"viability, T/C","second compound 0.316 µM, first compound 1 µM",82.6%
same,"viability, T/C","second compound 0.316 µM, first compound 3.16 µM",115%
same,"viability, T/C","second compound 0.316 µM, first compound 10 µM",73.7%
same,"viability, T/C","second compound 1 µM, first compound 0.0316 µM",103%
same,"viability, T/C","second compound 1 µM, first compound 0.1 µM",90.2%
same,"viability, T/C","second compound 1 µM, first compound 0.316 µM",91.2%
same,"viability, T/C","second compound 1 µM, first compound 1 µM",79.5%
same,"viability, T/C","second compound 1 µM, first compound 3.16 µM",95.3%
same,"viability, T/C","second compound 1 µM, first compound 10 µM",84.1%
same,"viability, T/C","second compound 3.16 µM, first compound 0.0316 µM",102%
same,"viability, T/C","second compound 3.16 µM, first compound 0.1 µM",89.5%
same,"viability, T/C","second compound 3.16 µM, first compound 0.316 µM",101%
same,"viability, T/C","second compound 3.16 µM, first compound 1 µM",80.1%
same,"viability, T/C","second compound 3.16 µM, first compound 3.16 µM",93%
same,"viability, T/C","second compound 3.16 µM, first compound 10 µM",71.1%
same,"viability, T/C","second compound 10 µM, first compound 0.0316 µM",90%
same,"viability, T/C","second compound 10 µM, first compound 0.1 µM",81.4%
same,"viability, T/C","second compound 10 µM, first compound 0.316 µM",93%
same,"viability, T/C","second compound 10 µM, first compound 1 µM",95.1%
same,"viability, T/C","second compound 10 µM, first compound 3.16 µM",98.7%
same,"viability, T/C","second compound 10 µM, first compound 10 µM",73.1%
